Measured values from US20110009343A1, “MODULATORS OF AMYLOID AGGREGATION” (Praecis Pharmaceuticals, Inc., priority 1995, published 2011).
Marks after values point to notes of the source that are not given here. Numbered stars: 1 amine (or outer) side, 2 acyl side, 3 side chain; on linkers, the order of the positions; unused ones are H or OH. Square brackets hold non-standard residues; d marks the D form. Peptide text beside a SMILES is read from it. * marks the point of attachment. Cholyl = C[C@H](CCC(=O)*)[C@H]1CC[C@H]2[C@@H]3[C@H](O)C[C@@H]4C[C@H](O)CC[C@]4(C)[C@H]3C[C@H](O)[C@]12C; X2 = O=C(C1(O)C[C@H](O)[C@@H](N[*:1])[C@H]([C@H](O)[C@H](O)CO)O1)[*:2]; X3 = N=C1N[C@H]2[C@H](CS[C@H]2CCCCC(=O)*)N1; CA = not defined here

Biological target: T1, Aβ1-40 (Homo sapiens, UniProt P05067)
T1 construct: (β-AP1-40) was obtained commercially from Bachem (Torrance, Calif.); purchased Bachem (Torrance, Calif.)
T1 sequence (P05067 672-711): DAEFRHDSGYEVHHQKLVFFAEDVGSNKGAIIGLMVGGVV
Experiment: Nucleation assay (turbidity, A405 nm);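 note: synthetic Aβ monomer polymerization followed by turbidity in 96-well plates with continuous shaking, read every 15 minutes over 5 hours, compared against wells lacking test compound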
Assay type: biochemical

[1] = Table V, 100 mole % inhibitor relative to Aβ1-40
[2] = Table V, 100 mole % inhibitor, read-out: % Inucl'n (percent reduction in maximum observed turbidity)
[3] = Table II, 100 mole % vs 50 μM Aβ1-40

CC(C)C[C@H](NC(=O)[C@H](CCCCN)NC(=O)CC[C@@H](C)[C@H]1CC[C@H]2[C@@H]3[C@H](O)C[C@@H]4C[C@H](O)CC[C@]4(C)[C@H]3C[C@H](O)[C@]12C)C(=O)N[C@H](C(=O)N[C@@H](C)C(=O)N[C@@H](Cc1ccccc1)C(=O)O)C(C)C [PPI-370, cholyl-Aβ16-20 Phe19->Ala] (Cholyl-KLVAF-OH)
Fold Increase in Lag Time (Table IV, 100 mole %): 2.6 fold
ΔLag (ratio of lag time with test compound to lag time of control) [1]: 2.6
inhibition at 100 mol % [2]: 73%

CC(C)C[C@H](NC(=O)[C@H](CCCCN)NC(=O)[C@H](CCC(N)=O)NC(=O)[C@H](Cc1c[nH]cn1)NC(=O)[C@H](Cc1c[nH]cn1)NC(=O)CC[C@@H](C)[C@H]1CC[C@H]2[C@@H]3[C@H](O)C[C@@H]4C[C@H](O)CC[C@]4(C)[C@H]3C[C@H](O)[C@]12C)C(=O)N[C@H](C(=O)N[C@@H](Cc1ccccc1)C(=O)N[C@@H](Cc1ccccc1)C(=O)O)C(C)C [PPI-347, cholyl-Aβ13-20] (Cholyl-HHQKLVFF-OH)
Fold Increase in Lag Time (Table III, 33 mole %): 2.6 fold
Fold Increase in Lag Time (Table IV, 10 mole %): 2.2 fold

CC(C)C[C@H](NC(=O)[C@H](CCCCN)NC(=O)CCCC[C@@H]1SC[C@@H]2NC(=N)N[C@@H]21)C(=O)N[C@H](C(=O)N[C@@H](Cc1ccccc1)C(=O)N[C@@H](Cc1ccccc1)C(=O)N[C@@H](C)C(=O)N[C@@H](CCC(=O)O)C(=O)N[C@@H](CC(=O)O)C(=O)N[C@H](C(=O)NCC(=O)N[C@@H](CO)C(=O)N[C@@H](CC(N)=O)C(=O)N[C@@H](CCCCN)C(=O)NCC(=O)N[C@@H](C)C(=O)O)C(C)C)C(C)C [PPI-277] (X3-KLVFFAEDVGSNKGA-OH)
Fold Increase in Lag Time [3]: 1.2 fold

CC[C@H](C)[C@H](NC(=O)[C@H](C)NC(=O)CNC(=O)[C@H](CCCCN)NC(=O)[C@H](CC(N)=O)NC(=O)[C@H](CO)NC(=O)CNC(=O)[C@@H](NC(=O)[C@H](CC(=O)O)NC(=O)[C@H](CCC(=O)O)NC(=O)[C@H](C)NC(=O)CCCC[C@@H]1SC[C@@H]2NC(=N)N[C@@H]21)C(C)C)C(=O)N[C@H](C(=O)NCC(=O)N[C@@H](CC(C)C)C(=O)N[C@@H](CCSC)C(=O)O)[C@@H](C)CC [PPI-282] (X3-AEDVGSNKGAIIGLM-OH)
Fold Increase in Lag Time [3]: ~1 fold

CC(C)C[C@H](NC(=O)[C@H](CCCCN)NC(=O)CC[C@@H](C)[C@H]1CC[C@H]2[C@@H]3[C@H](O)C[C@@H]4C[C@H](O)CC[C@]4(C)[C@H]3C[C@H](O)[C@]12C)C(=O)N[C@H](C(=O)N[C@@H](Cc1ccccc1)C(=O)N[C@@H](Cc1ccccc1)C(=O)O)[C@@H](C)O [PPI-369] (Cholyl-KLTFF-OH)
Fold Increase in Lag Time (Table IV, 100 mole %): ~1 fold
ΔLag (ratio of lag time with test compound to lag time of control) [1]: 1.1
inhibition at 100 mol % [2]: -16%

PPI-407: CA-LVFFK-oh
% Inucl'n (percent reduction in maximum observed turbidity) (Table V, 33 mol % inhibitor): 100** %

CC(C)C[C@H](NC(=O)[C@H](CCCCN)NC(=O)[C@H](CCC(N)=O)NC(=O)[C@H](Cc1c[nH]cn1)NC(=O)[C@H](Cc1c[nH]cn1)NC(=O)[C@@H](NC(=O)[C@H](CCC(=O)O)NC(=O)[C@H](Cc1ccc(O)cc1)NC(=O)CNC(=O)[C@H](CO)NC(=O)[C@H](CC(=O)O)NC(=O)[C@H](Cc1c[nH]cn1)NC(=O)CC[C@@H](C)[C@H]1CC[C@H]2[C@@H]3[C@H](O)C[C@@H]4C[C@H](O)CC[C@]4(C)[C@H]3C[C@H](O)[C@]12C)C(C)C)C(N)=O [PPI-325] (Cholyl-HDSGYEVHHQKL-NH2)
Fold Increase in Lag Time (Table III, 33 mole %): 1.8 fold

CC(=O)N[C@H]1[C@H]([C@H](O)[C@H](O)CO)OC(O)(C(=O)N[C@@H](CCCCN)C(=O)N[C@@H](CC(C)C)C(=O)N[C@H](C(=O)N[C@@H](Cc2ccccc2)C(=O)N[C@@H](Cc2ccccc2)C(=O)N[C@@H](C)C(=O)N[C@@H](CCC(=O)O)C(=O)N[C@@H](CC(=O)O)C(=O)N[C@H](C(=O)NCC(=O)N[C@@H](CO)C(=O)N[C@@H](CC(N)=O)C(=O)N[C@@H](CCCCN)C(=O)NCC(=O)N[C@@H](C)C(=O)O)C(C)C)C(C)C)C[C@@H]1O (stereo partly shown) [PPI-276] (Ac-[X2]KLVFFAEDVGSNKGA-OH)
Fold Increase in Lag Time [3]: ~1 fold

PPI-438: CA-GFF-oh ({CA}-Gly-Phe-Phe-OH; reading uncertain; also: printed as PPI-438: CA-GFF-oh)
% Inucl'n (percent reduction in maximum observed turbidity) (Table V, 100 mole % inhibitor): 0%
ΔLag (ratio of lag time with test compound to lag time of control) [1]: 1.0

CC(C)C[C@H](N)C(=O)N[C@H](C(=O)N[C@@H](Cc1ccccc1)C(=O)N[C@@H](Cc1ccccc1)C(=O)N[C@@H](C)C(=O)O)C(C)C [PPI-386]
% Inucl'n (percent reduction in maximum observed turbidity) (Table V, 100 mole % inhibitor): 15%

CC(=O)N[C@H]1[C@H]([C@H](O)[C@H](O)CO)OC(O)(C(=O)N[C@@H](Cc2c[nH]cn2)C(=O)N[C@@H](CC(=O)O)C(=O)N[C@@H](CO)C(=O)NCC(=O)N[C@@H](Cc2ccc(O)cc2)C(=O)N[C@@H](CCC(=O)O)C(=O)N[C@H](C(=O)N[C@@H](Cc2c[nH]cn2)C(=O)N[C@@H](Cc2c[nH]cn2)C(=O)N[C@@H](CCC(N)=O)C(=O)N[C@@H](CCCCN)C(=O)N[C@@H](CC(C)C)C(=O)N[C@H](C(=O)N[C@@H](Cc2ccccc2)C(=O)N[C@@H](Cc2ccccc2)C(=O)O)C(C)C)C(C)C)C[C@@H]1O (stereo partly shown) [PPI-266] (Ac-[X2]HDSGYEVHHQKLVFF-OH)
Fold Increase in Lag Time [3]: 1.3 fold

C[C@H](CCC(=O)N[C@@H](Cc1c[nH]cn1)C(=O)N[C@@H](CC(=O)O)C(=O)N[C@@H](CO)C(=O)NCC(=O)N[C@@H](Cc1ccc(O)cc1)C(N)=O)[C@H]1CC[C@H]2[C@@H]3[C@H](O)C[C@@H]4C[C@H](O)CC[C@]4(C)[C@H]3C[C@H](O)[C@]12C [PPI-339] (Cholyl-HDSGY-NH2)
Fold Increase in Lag Time (Table III, 33 mole %): 1.1 fold
ΔLag (ratio of lag time with test compound to lag time of control) [1]: 1.1
inhibition at 100 mol % [2]: -18%

C[C@H](NC(=O)[C@H](C)NC(=O)[C@H](C)NC(=O)[C@H](C)NC(=O)[C@H](C)NC(=O)CC[C@@H](C)[C@H]1CC[C@H]2[C@@H]3[C@H](O)C[C@@H]4C[C@H](O)CC[C@]4(C)[C@H]3C[C@H](O)[C@]12C)C(=O)O [PPI-365, Cholyl-penta-alanine]
Fold Increase in Lag Time (Table IV, 100 mole %): ~1 fold
ΔLag (ratio of lag time with test compound to lag time of control) [1]: 0.8
inhibition at 100 mol % [2]: -7%

CC(C)C[C@H](NC(=O)[C@H](CCCCN)NC(=O)[C@H](CCC(N)=O)NC(=O)[C@H](Cc1c[nH]cn1)NC(=O)[C@H](Cc1c[nH]cn1)NC(=O)[C@@H](NC(=O)[C@H](CCC(=O)O)NC(=O)[C@H](Cc1ccc(O)cc1)NC(=O)CNC(=O)[C@H](CO)NC(=O)[C@H](CC(=O)O)NC(=O)[C@H](Cc1c[nH]cn1)NC(=O)CCCC[C@@H]1SC[C@@H]2NC(=N)N[C@@H]21)C(C)C)C(=O)N[C@H](C(=O)N[C@@H](Cc1ccccc1)C(=O)N[C@@H](Cc1ccccc1)C(=O)O)C(C)C [PPI-267, iminobiotinyl-Aβ6-20] (X3-HDSGYEVHHQKLVFF-OH)
Fold Increase in Lag Time [3]: 1.6 fold

CC[C@H](C)[C@H](NC(=O)[C@H](C)NC(=O)CNC(=O)[C@H](CCCCN)NC(=O)[C@H](CC(N)=O)NC(=O)[C@H](CO)NC(=O)CCCC[C@@H]1SC[C@@H]2NC(=N)N[C@@H]21)C(=O)N[C@H](C(=O)NCC(=O)N[C@@H](CC(C)C)C(=O)N[C@@H](CCSC)C(=O)N[C@H](C(=O)NCC(=O)NCC(=O)N[C@H](C(=O)N[C@H](C(=O)O)C(C)C)C(C)C)C(C)C)[C@@H](C)CC [PPI-287] (X3-SNKGAIIGLMVGGVV-OH)
Fold Increase in Lag Time [3]: 2.3 fold

CC[C@H](C)[C@H](NC(=O)[C@H](C)NC(=O)CNC(=O)[C@H](CCCCN)NC(=O)[C@H](CC(N)=O)NC(=O)[C@H](CO)NC(=O)C1(O)C[C@H](O)[C@@H](NC(C)=O)[C@H]([C@H](O)[C@H](O)CO)O1)C(=O)N[C@H](C(=O)NCC(=O)N[C@@H](CC(C)C)C(=O)N[C@@H](CCSC)C(=O)N[C@H](C(=O)NCC(=O)NCC(=O)N[C@H](C(=O)N[C@H](C(=O)O)C(C)C)C(C)C)C(C)C)[C@@H](C)CC (stereo partly shown) [PPI-286] (Ac-[X2]SNKGAIIGLMVGGVV-OH)
Fold Increase in Lag Time [3]: 1.3 fold

CC(C)C[C@H](NC(=O)OC(C)(C)C)C(=O)N[C@H](C(=O)N[C@@H](Cc1ccccc1)C(=O)N[C@@H](Cc1ccccc1)C(=O)N[C@@H](C)C(=O)O)C(C)C [PPI-435]
% Inucl'n (percent reduction in maximum observed turbidity) (Table V, 100 mole % inhibitor): −5%

CC(C)[C@H](NC(=O)[C@H](CCC(=O)O)NC(=O)[C@H](Cc1ccc(O)cc1)NC(=O)CNC(=O)[C@H](CO)NC(=O)[C@H](CC(=O)O)NC(=O)[C@H](Cc1c[nH]cn1)NC(=O)CC[C@@H](C)[C@H]1CC[C@H]2[C@@H]3[C@H](O)C[C@@H]4C[C@H](O)CC[C@]4(C)[C@H]3C[C@H](O)[C@]12C)C(=O)N[C@@H](Cc1c[nH]cn1)C(=O)N[C@@H](Cc1c[nH]cn1)C(N)=O [PPI-331] (Cholyl-HDSGYEVHH-NH2)
Fold Increase in Lag Time (Table III, 33 mole %): 1.0 fold

CC[C@H](C)[C@H](NC(=O)[C@H](C)NC(=O)CNC(=O)[C@H](CCCCN)NC(=O)[C@H](CC(N)=O)NC(=O)[C@H](CO)NC(=O)CNC(=O)[C@@H](NC(=O)[C@H](CC(=O)O)NC(=O)[C@H](CCC(=O)O)NC(=O)[C@H](C)NC(=O)CC[C@@H](C)[C@H]1CC[C@H]2[C@@H]3[C@H](O)C[C@@H]4C[C@H](O)CC[C@]4(C)[C@H]3C[C@H](O)[C@]12C)C(C)C)C(=O)N[C@H](C(=O)NCC(=O)N[C@@H](CC(C)C)C(=O)N[C@@H](CCSC)C(=O)O)[C@@H](C)CC [PPI-279] (Cholyl-AEDVGSNKGAIIGLM-OH)
Fold Increase in Lag Time [3]: 1.6 fold

PPI-418: h-(Aic)-LVFFA-oh
% Inucl'n (percent reduction in maximum observed turbidity) (Table V, 33 mol % inhibitor): 100** %

CC(C)C[C@H](NC(=O)[C@H](CCCCN)NC(=O)[C@H](CCC(N)=O)NC(=O)[C@H](Cc1c[nH]cn1)NC(=O)CC[C@@H](C)[C@H]1CC[C@H]2[C@@H]3[C@H](O)C[C@@H]4C[C@H](O)CC[C@]4(C)[C@H]3C[C@H](O)[C@]12C)C(=O)N[C@H](C(=O)N[C@@H](Cc1ccccc1)C(=O)N[C@@H](Cc1ccccc1)C(=O)O)C(C)C [PPI-348, cholyl-Aβ14-20] (Cholyl-HQKLVFF-OH)
Fold Increase in Lag Time (Table III, 33 mole %): 2.0 fold
inhibition at 33 mol % (Table V, 33 mol % inhibitor, read-out: % Inucl'n (percent reduction in maximum observed turbidity)): 70%
ΔLag (ratio of lag time with test compound to lag time of control) (Table V, 33 mole % inhibitor): 2.0

CC(C)C[C@H](NC(=O)[C@@H](N)CCCCN)C(=O)N[C@H](C(=O)N[C@@H](Cc1ccccc1)C(=O)N[C@@H](Cc1ccccc1)C(=O)O)C(C)C [PPI-377, Aβ16-20]
inhibition at 100 mol % [2]: 0%
